Results reported in ChEMBL document CHEMBL1156471, “Targeting host cell furin proprotein convertases as a therapeutic strategy against bacterial toxins and viral pathogens” (J Biol Chem, 2007).

What follows are compounds tested against Furin (Homo sapiens, UniProt P09958).
Chain of Furin (P09958 whole entry): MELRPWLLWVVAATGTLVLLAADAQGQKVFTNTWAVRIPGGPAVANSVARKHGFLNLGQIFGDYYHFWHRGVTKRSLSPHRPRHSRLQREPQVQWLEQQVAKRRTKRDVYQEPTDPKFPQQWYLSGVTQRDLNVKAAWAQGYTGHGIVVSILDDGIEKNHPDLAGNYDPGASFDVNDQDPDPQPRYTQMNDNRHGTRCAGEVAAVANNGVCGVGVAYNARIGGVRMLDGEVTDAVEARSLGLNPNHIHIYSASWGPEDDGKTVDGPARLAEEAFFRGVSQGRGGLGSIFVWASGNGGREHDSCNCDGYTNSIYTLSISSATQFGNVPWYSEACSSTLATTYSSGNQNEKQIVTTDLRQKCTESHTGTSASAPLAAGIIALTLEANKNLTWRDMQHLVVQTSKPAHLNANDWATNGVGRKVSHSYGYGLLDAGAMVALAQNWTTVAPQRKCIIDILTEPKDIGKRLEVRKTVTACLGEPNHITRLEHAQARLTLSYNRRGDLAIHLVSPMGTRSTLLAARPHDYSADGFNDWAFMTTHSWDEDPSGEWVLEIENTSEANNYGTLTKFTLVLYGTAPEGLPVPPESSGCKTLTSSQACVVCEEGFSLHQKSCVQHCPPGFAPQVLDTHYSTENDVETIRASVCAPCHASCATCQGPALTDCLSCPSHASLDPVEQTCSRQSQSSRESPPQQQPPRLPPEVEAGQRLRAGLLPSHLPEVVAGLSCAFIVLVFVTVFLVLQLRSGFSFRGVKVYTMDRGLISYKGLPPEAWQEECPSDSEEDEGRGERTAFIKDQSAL

Structure (SMILES) | Ki [µM]
C[C@@H](O)[C@H](N)C(=O)N1CCC[C@H]1C(=O)N[C@@H](CCCNC(=N)N)C(=O)N[C@@H](CCC(=O)O)C(=O)N[C@@H](CCCNC(=N)N)C(=O)N[C@@H](CCCNC(=N)N)C(=O)N[C@@H](CCCNC(=N)N)C(=O)N[C@@H](CCCCN)C(=O)N[C@@H](CCCCN)C(=O)N[C@@H](CCCNC(=N)N)C(=O)NCC(=O)O | > 0.1
CSCC[C@H](NC(=O)[C@H](CCCNC(=N)N)NC(=O)[C@H](CCCCN)NC(=O)[C@H](CCCCN)NC(=O)[C@H](CCCNC(=N)N)NC(=O)[C@H](CCCNC(=N)N)NC(=O)[C@H](CCCNC(=N)N)NC(=O)[C@H](C)NC(=O)[C@H](CCCNC(=N)N)NC(=O)[C@@H]1CCCN1C(=O)[C@@H](N)[C@@H](C)O)C(=O)O | > 0.1
CSC[C@H](NC(=O)[C@H](CCCN=C(N)N)NC(=O)[C@H](CCCCN)NC(=O)[C@H](CCCCN)NC(=O)[C@H](CCCN=C(N)N)NC(=O)[C@H](CCCN=C(N)N)NC(=O)[C@H](CCCN=C(N)N)NC(=O)[C@H](C)NC(=O)[C@H](CCCN=C(N)N)NC(=O)[C@@H]1CCCN1C(=O)[C@@H](N)[C@@H](C)O)C(=O)O | 0.065
CSCC[C@H](NC(=O)[C@H](CCCN=C(N)N)NC(=O)[C@H](CCC(N)=O)NC(=O)[C@@H]1CCCN1C(=O)[C@@H](N)[C@@H](C)O)C(=O)N[C@@H](CCCN=C(N)N)C(=O)N[C@@H](CCCN=C(N)N)C(=O)N[C@@H](CCCN=C(N)N)C(=O)N[C@@H](CCCCN)C(=O)N[C@@H](CCCCN)C(=O)N[C@@H](CCCNC(=N)N)C(=O)NCC(=O)O | > 0.1
C[C@@H](O)[C@H](N)C(=O)N1CCC[C@H]1C(=O)N[C@@H](CCCNC(=N)N)C(=O)N[C@H](CCC(=O)O)C(=O)N[C@@H](CCCNC(=N)N)C(=O)N[C@@H](CCCNC(=N)N)C(=O)N[C@@H](CCCNC(=N)N)C(=O)N[C@@H](CCCCN)C(=O)N[C@@H](CCCCN)C(=O)N[C@@H](CCCNC(=N)N)C(=O)NCC(=O)O | > 0.1
CCCC[C@H](NC(=O)[C@H](CCCNC(=N)N)NC(=O)[C@H](CCCCN)NC(=O)[C@H](CCCCN)NC(=O)[C@H](CCCNC(=N)N)NC(=O)[C@H](CCCNC(=N)N)NC(=O)[C@H](CCCNC(=N)N)NC(=O)[C@H](C)NC(=O)[C@H](CCCNC(=N)N)NC(=O)[C@@H]1CCCN1C(=O)[C@@H](N)[C@@H](C)O)C(=O)O | 0.081
C[C@@H](O)[C@H](N)C(=O)N1CCC[C@H]1C(=O)N[C@@H](CCC(N)=O)C(=O)N[C@@H](CCCNC(=N)N)C(=O)NCCC(=O)N[C@@H](CCCN=C(N)N)C(=O)N[C@@H](CCCN=C(N)N)C(=O)N[C@@H](CCCN=C(N)N)C(=O)N[C@@H](CCCCN)C(=O)N[C@@H](CCCCN)C(=O)N[C@@H](CCCNC(=N)N)C(=O)NCC(=O)O | > 0.1
C[C@@H](O)[C@H](N)C(=O)N1CCC[C@H]1C(=O)N[C@@H](CCC(N)=O)C(=O)N[C@@H](CCCNC(=N)N)C(=O)N[C@@H](CCCNC(N)=O)C(=O)N[C@@H](CCCNC(=N)N)C(=O)N[C@@H](CCCNC(=N)N)C(=O)N[C@@H](CCCNC(=N)N)C(=O)N[C@@H](CCCCN)C(=O)N[C@@H](CCCCN)C(=O)N[C@@H](CCCNC(=N)N)C(=O)NCC(=O)O | > 0.1
C[C@H](NC(=O)[C@H](CCCNC(=N)N)NC(=O)[C@@H]1CCCN1C(=O)[C@@H](N)[C@@H](C)O)C(=O)N[C@@H](CCCNC(=N)N)C(=O)N[C@@H](CCCNC(=N)N)C(=O)N[C@@H](CCCNC(=N)N)C(=O)N[C@@H](CCCCN)C(=O)N[C@@H](CCCCN)C(=O)N[C@@H](CCCNC(=N)N)C(=O)N[C@@H](CS)C(=O)O | > 0.1
C[C@@H](O)[C@H](N)C(=O)N1CCC[C@H]1C(=O)N[C@@H](CCC(N)=O)C(=O)N[C@@H](CCCNC(=N)N)C(=O)NCCCCCC(=O)N[C@@H](CCCNC(=N)N)C(=O)N[C@@H](CCCNC(=N)N)C(=O)N[C@@H](CCCNC(=N)N)C(=O)N[C@@H](CCCCN)C(=O)N[C@@H](CCCCN)C(=O)N[C@@H](CCCNC(=N)N)C(=O)NCC(=O)O | > 0.1
C[C@@H](O)[C@H](N)C(=O)N1CCC[C@H]1C(=O)N[C@@H](CCCN=C(N)N)C(=O)N[C@@H](CCCNC(N)=O)C(=O)N[C@@H](CCCN=C(N)N)C(=O)N[C@@H](CCCN=C(N)N)C(=O)N[C@@H](CCCN=C(N)N)C(=O)N[C@@H](CCCCN)C(=O)N[C@@H](CCCCN)C(=O)N[C@@H](CCCN=C(N)N)C(=O)NCC(=O)O | > 0.1
C[C@H](NC(=O)[C@H](CCCNC(=N)N)NC(=O)[C@H](CCC(N)=O)NC(=O)[C@@H]1CCCN1C(=O)[C@@H](N)[C@@H](C)O)C(=O)N[C@@H](CCCNC(=N)N)C(=O)N[C@@H](CCCNC(=N)N)C(=O)N[C@@H](CCCNC(=N)N)C(=O)N[C@@H](CCCCN)C(=O)N[C@@H](CCCCN)C(=O)N[C@H](CCCNC(=N)N)C(=O)NCC(=O)O | > 0.1
C[C@@H](O)[C@H](N)C(=O)N1CCC[C@H]1C(=O)N[C@@H](CCC(N)=O)C(=O)N[C@@H](CCCNC(=N)N)C(=O)N[C@@H](CS)C(=O)N[C@@H](CCCNC(=N)N)C(=O)N[C@@H](CCCNC(=N)N)C(=O)N[C@@H](CCCNC(=N)N)C(=O)N[C@@H](CCCCN)C(=O)N[C@@H](CCCCN)C(=O)N[C@@H](CCCNC(=N)N)C(=O)NCC(=O)O | > 0.1
C[C@@H](O)[C@H](N)C(=O)N1CCC[C@H]1C(=O)N[C@@H](CCCN=C(N)N)C(=O)NC1(C(=O)N[C@@H](CCCN=C(N)N)C(=O)N[C@@H](CCCN=C(N)N)C(=O)N[C@@H](CCCN=C(N)N)C(=O)N[C@@H](CCCCN)C(=O)N[C@@H](CCCCN)C(=O)N[C@@H](CCCN=C(N)N)C(=O)NCC(=O)O)CCCC1 | > 0.1
C[C@@H](O)[C@H](N)C(=O)N1CCC[C@H]1C(=O)N[C@@H](CCCN=C(N)N)C(=O)N[C@@H](CCCCN)C(=O)N[C@@H](CCCN=C(N)N)C(=O)N[C@@H](CCCN=C(N)N)C(=O)N[C@@H](CCCN=C(N)N)C(=O)N[C@@H](CCCCN)C(=O)N[C@@H](CCCCN)C(=O)N[C@@H](CCCN=C(N)N)C(=O)NCC(=O)O | > 0.1
C[C@@H](O)[C@H](N)C(=O)N1CCC[C@H]1C(=O)N[C@@H](CCC(N)=O)C(=O)N[C@@H](CCCNC(=N)N)C(=O)N[C@@H](CCC(=O)O)C(=O)N[C@@H](CCCNC(=N)N)C(=O)N[C@@H](CCCNC(=N)N)C(=O)N[C@@H](CCCNC(=N)N)C(=O)N[C@@H](CCCCN)C(=O)N[C@@H](CCCCN)C(=O)N[C@@H](CCCNC(=N)N)C(=O)NCC(=O)O | > 0.1
C[C@@H](O)[C@H](N)C(=O)N1CCC[C@H]1C(=O)N[C@@H](CCC(N)=O)C(=O)N[C@@H](CCCN=C(N)N)C(=O)N[C@@H](CCCN=C(N)N)C(=O)N[C@@H](CCCN=C(N)N)C(=O)N[C@@H](CCCN=C(N)N)C(=O)N[C@@H](CCCN=C(N)N)C(=O)N[C@@H](CCCCN)C(=O)N[C@@H](CCCCN)C(=O)N[C@@H](CCCNC(=N)N)C(=O)NCC(=O)O | > 0.1
C[C@@H](O)[C@H](N)C(=O)N1CCC[C@H]1C(=O)N[C@@H](CCC(N)=O)C(=O)N[C@@H](CCCN=C(N)N)C(=O)N[C@H](CCCCN)C(=O)N[C@@H](CCCN=C(N)N)C(=O)N[C@@H](CCCN=C(N)N)C(=O)N[C@@H](CCCN=C(N)N)C(=O)N[C@@H](CCCCN)C(=O)N[C@@H](CCCCN)C(=O)N[C@@H](CCCNC(=N)N)C(=O)NCC(=O)O | > 0.1
C[C@@H](O)[C@H](N)C(=O)N1CCC[C@H]1C(=O)N[C@@H](CCCNC(=N)N)C(=O)N[C@H](CCCCN)C(=O)N[C@@H](CCCNC(=N)N)C(=O)N[C@@H](CCCNC(=N)N)C(=O)N[C@@H](CCCNC(=N)N)C(=O)N[C@@H](CCCCN)C(=O)N[C@@H](CCCCN)C(=O)N[C@@H](CCCNC(=N)N)C(=O)NCC(=O)O | > 0.1
C[C@@H](O)[C@H](N)C(=O)N1CCC[C@H]1C(=O)N[C@@H](CCC(N)=O)C(=O)N[C@@H](CCCN=C(N)N)C(=O)N[C@H](CCCN=C(N)N)C(=O)N[C@@H](CCCN=C(N)N)C(=O)N[C@@H](CCCN=C(N)N)C(=O)N[C@@H](CCCN=C(N)N)C(=O)N[C@@H](CCCCN)C(=O)N[C@@H](CCCCN)C(=O)N[C@@H](CCCNC(=N)N)C(=O)NCC(=O)O | > 0.1
C[C@@H](O)[C@H](N)C(=O)N1CCC[C@H]1C(=O)N[C@@H](CCC(N)=O)C(=O)N[C@@H](CCCN=C(N)N)C(=O)N[C@@H](CCCCN)C(=O)N[C@@H](CCCN=C(N)N)C(=O)N[C@@H](CCCN=C(N)N)C(=O)N[C@@H](CCCN=C(N)N)C(=O)N[C@@H](CCCCN)C(=O)N[C@@H](CCCCN)C(=O)N[C@@H](CCCNC(=N)N)C(=O)NCC(=O)O | > 0.1
C[C@@H](O)[C@H](N)C(=O)N1CCC[C@H]1C(=O)N[C@@H](CCC(N)=O)C(=O)N[C@@H](CCCN=C(N)N)C(=O)N[C@H](CCC(=O)O)C(=O)N[C@@H](CCCN=C(N)N)C(=O)N[C@@H](CCCN=C(N)N)C(=O)N[C@@H](CCCN=C(N)N)C(=O)N[C@@H](CCCCN)C(=O)N[C@@H](CCCCN)C(=O)N[C@@H](CCCNC(=N)N)C(=O)NCC(=O)O | > 0.1
CC(C)C[C@H](NC(=O)[C@H](CCCN=C(N)N)NC(=O)[C@H](CCCCN)NC(=O)[C@H](CCCCN)NC(=O)[C@H](CCCN=C(N)N)NC(=O)[C@H](CCCN=C(N)N)NC(=O)[C@H](CCCN=C(N)N)NC(=O)[C@H](C)NC(=O)[C@H](CCCN=C(N)N)NC(=O)[C@@H]1CCCN1C(=O)[C@@H](N)[C@@H](C)O)C(=O)O | > 0.1
C[C@H](NC(=O)[C@H](CCCNC(=N)N)NC(=O)[C@H](CCC(N)=O)NC(=O)[C@@H]1CCCN1C(=O)[C@@H](N)[C@@H](C)O)C(=O)N[C@@H](CCCNC(=N)N)C(=O)N[C@@H](CCCNC(=N)N)C(=O)N[C@@H](CCCNC(=N)N)C(=O)N[C@@H](CCCCN)C(=O)N[C@@H](CCCCN)C(=O)N[C@H](CCCCN)C(=O)NCC(=O)O | > 0.1
C[C@H](NC(=O)[C@H](CCCN=C(N)N)NC(=O)[C@H](CCC(N)=O)NC(=O)[C@@H]1CCCN1C(=O)[C@@H](N)[C@@H](C)O)C(=O)N[C@@H](CCCN=C(N)N)C(=O)N[C@@H](CCCN=C(N)N)C(=O)N[C@@H](CCCN=C(N)N)C(=O)N[C@@H](CCCCN)C(=O)N[C@@H](CCCCN)C(=O)N[C@@H](CCCNC(N)=O)C(=O)NCC(=O)O | > 0.1
C[C@@H](O)[C@H](N)C(=O)N1CCC[C@H]1C(=O)N[C@@H](CCC(N)=O)C(=O)N[C@@H](CCCN=C(N)N)C(=O)NC1(C(=O)N[C@@H](CCCN=C(N)N)C(=O)N[C@@H](CCCN=C(N)N)C(=O)N[C@@H](CCCN=C(N)N)C(=O)N[C@@H](CCCCN)C(=O)N[C@@H](CCCCN)C(=O)N[C@@H](CCCNC(=N)N)C(=O)NCC(=O)O)CCCC1 | > 0.1
CC(C)C[C@H](NC(=O)[C@H](CCCNC(=N)N)NC(=O)[C@H](CCC(N)=O)NC(=O)[C@@H]1CCCN1C(=O)[C@@H](N)[C@@H](C)O)C(=O)N[C@@H](CCCNC(=N)N)C(=O)N[C@@H](CCCNC(=N)N)C(=O)N[C@@H](CCCNC(=N)N)C(=O)N[C@@H](CCCCN)C(=O)N[C@@H](CCCCN)C(=O)N[C@@H](CCCNC(=N)N)C(=O)NCC(=O)O | > 0.1
